What was measured:
human A131-42 monomer [1] = target: T1, human A131-42 monomer (Homo sapiens, UniProt P05067); experiment: Disaggregation of amyloid-beta aggregates (thioflavine-T fluorescence); format: biochemical
T1 construct: UniProt KB-P05067, a.a; 672 to 713
Experimental: An amyloid-beta solution was prepared by dissolving human A131-42 monomer (UniProt KB-P05067, a.a. 672 to 713) in DMSO to have a concentration of 10 mM. Then, the amyloid-beta solution was diluted with distilled water to prepare a solution having a concentration of 100 μM. Meanwhile, thioflavine-T (Sigma-Aldrich) was dissolved in 50 mM glycin buffer (pH 8.5) to have a concentration of 5 mM. Then, the resulting solution was diluted with 50 mM glycin buffer (pH 8.5) to have a concentration of 5 μM, and stored light-blocked in a dark room. In addition, to verify the activity of rhizolutin on disaggregation of the amyloid-beta aggregation, the amyloid-beta solution was added to a 1.5 mL microtube to a concentration of 25 μM and incubated at 37° C. for 72 hours. Then, 1 mM of rhizolutin was added to each microtube, followed by incubation at 37° C. for 72 hours. […] Then, fluorescence intensity was measured at an excitation wavelength of 450 nm and an emission wavelength of 485 nm by using a multi-mode microplate reader. Based on the fluorescence intensity of the group (control group) in which only amyloid-beta was treated and aggregated for 72 hours, the fluorescence intensity (%) of each group was calculated, and results are shown in FIG. 3B (mean±SEM, *: p<0.05, ***: p<0.001).

APP/PS1 transgenic mice = experiment: Amyloid-beta aggregates in brain tissue of APP/PS1 transgenic mice (thioflavine S / GFAP staining); format: in vivo, mouse; settings: 8 mg/kg/day intraperitoneal for 3 weeks
Experimental: First, APP/PS1 transgenic mice (7.5-month-old, male, Jackson Laboratory, 9 to 10 mice/group) to which the genes of AD patients were injected were prepared. In the APP/PS1 transgenic mice, human amyloid-beta is expressed at a high level, and Alzheimer-like plaques are formed in the brain.
The prepared mice were intraperitoneally administered daily with rhizolutin at a dose of 8 mg/body weight (kg)/day for 3 weeks. As a negative control group, the prepared mice were intraperitoneally administered with a vehicle only.
Afterwards, the mouse brain was removed, and changes in amyloid-beta aggregates (in the form of oligomer or fibril) as AD biomarkers in the brain tissue were measured.

Tau protein [2] = experiment: Disaggregation of tau aggregates (thioflavin T fluorescence); format: biochemical; settings: 1 mM rhizolutin vs 20 mM EPPS
Experimental: Meanwhile, the tau protein was added to a 1.5 mL microtube at a concentration of 0.5 mg/mL, and incubated at 37° C. for 48 hours. Then, rhizolutin was added at a concentration of 1 mM, and incubated at 37° C. for 72 hours. To compare the efficacy, EPPS was added at a concentration of 20 mM, and incubated under the same conditions.
(§1) Thioflavin T was added to the reaction, and the fluorescence intensity was measured at an excitation wavelength of 450 nm and an emission wavelength of 485 nm. As a negative control group, a vehicle without the tau protein and rhizolutin was used.
(§2) Based on the fluorescence intensity of the group in which only the tau protein was treated (positive control group), the fluorescence intensity (%) of each group was calculated, and results are shown in FIGS. 6A and 6B (mean±SEM, *: p<0.01, ***: p<0.001).

human A131-42 monomer [3] = target: T1, human A131-42 monomer; experiment: Inhibition of amyloid-beta aggregation (thioflavine-T fluorescence); format: biochemical; settings: 25 μM amyloid-beta, 1 mM rhizolutin, 37° C., 120 hours
Experimental: An amyloid-beta solution was prepared by dissolving human A131-42 monomer (UniProt KB-P05067, a.a. 672 to 713) in DMSO to have a concentration of 10 mM. Then, the amyloid-beta solution was diluted with distilled water to prepare a solution having a concentration of 100 μM. Meanwhile, thioflavine-T (Sigma-Aldrich) was dissolved in 50 mM glycin buffer (pH 8.5) to have a concentration of 5 mM. Then, the resulting solution was diluted with 50 mM glycin buffer (pH 8.5) to have a concentration of 5 μM, and stored light-blocked in a dark room. To verify the inhibitory activity of rhizolutin on the amyloid-beta aggregation, the amyloid-beta solution was added to 1.5 mL microtubes to a concentration of 25 μM, and rhizolutin was added thereto at a concentration of 1 mM, followed by incubation at 37° C. for 120 hours. […] After a reaction was allowed for 5 minutes at room temperature in the darkroom, fluorescence was measured at an excitation wavelength of 450 nm and an emission wavelength of 485 nm by using a multi-mode microplate reader. Based on the fluorescence intensity of the group (control group) in which only amyloid-beta was treated and aggregated for 120 hours, the fluorescence intensity (%) of each group was calculated, and results are shown in FIG. 3A (one-way ANOVA test followed by Bonferroni's post-hoc comparison test, mean±SEM, ***: p<0.001).

[4] = tested on: HT-22 mouse hippocampal neuronal cells and BV2 microglial cells; experiment: Immunoblotting of cleaved caspase-3 and Bcl-2 in cells treated with amyloid-beta aggregates; format: cell-based; settings: amyloid-beta aggregates and 20 μM rhizolutin together, 24 hours
From the text: To verify the inhibitory activity of rhizolutin on the neurotoxicity of the amyloid-beta aggregates, changes in apoptosis-related biomarkers after exposing neurons to the neurotoxicity of the amyloid-beta aggregates were observed. Here, cleaved caspase-3, which is an apoptosis-inducing factor, and B-cell lymphoma 2 (Bcl-2), which inhibits apoptosis, were used as the biomarkers.
HT-22 mouse hippocampal neuronal cells and BV2 microglial cells were inoculated into a plate in a predetermined number. To each of the HT-22 cell line and the BV2 cell line, an amyloid-beta solution prepared in the same manner as in Example 2-2 was added at a concentration of […], followed by incubation at 37° C. for 24 hours. Afterwards, 20 μM of rhizolutin was added to each microtube, followed by incubation with amyloid-beta in a final concentration of 20 μM at 37° C. for 24 hours. As a negative control group, a group without rhizolutin and the amyloid-beta protein was used.
Cleaved caspase-3 and Bcl-2, which are apoptosis-related biomarkers, were identified by immunoblotting, and images thereof are shown in FIG. 5A.

Tau protein [5] = experiment: Inhibition of formation of tau aggregates (thioflavin T fluorescence); format: biochemical; settings: 1 mM rhizolutin vs 20 mM EPPS
Experimental: Tau protein was prepared at a concentration of 1 mg/mL, and as described in Example 2-3, the prepared tau protein was added to a 1.5 mL microtube at a concentration of 0.5 mg/mL, and 1 mM of rhizolutin and 20 mM of EPPS were added thereto, followed by incubation at 37° C. for 120 hours.
as §1, §2

T1 sequence (P05067 672-713): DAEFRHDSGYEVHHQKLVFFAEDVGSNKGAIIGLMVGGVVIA

Compound: CC[C@H]1C[C@@H]2/C(C)=C/[C@@H]3OC(=O)C[C@@H](O)C[C@H]3/C=C/C(C)=C\[C@H]2C(=O)O1 [rhizolutin]
- disaggregation of amyloid-beta aggregates (oligomer or fibril) (human A131-42 monomer [1]; 25 μM amyloid-beta pre-aggregated 72 hours, then 1 mM rhizolutin 72 hours, 37° C.): disaggregated the amyloid-beta aggregates
- amyloid-beta disaggregation activity compared with EPPS (human A131-42 monomer [1]; 1 mM rhizolutin vs 20 mM EPPS, same conditions): better than that of EPPS
- GFAP, biomarker of neuroinflammation (astrocytosis around the plaques) (APP/PS1 transgenic mice; brain tissue): also decreased
- number of amyloid-beta plaques in the hippocampus of the brain (APP/PS1 transgenic mice; thioflavine S, vs negative control group): decrease in the number of amyloid-beta plaques
- disaggregating tau aggregates compared with EPPS (Tau protein [2]): better effects
- formation of amyloid-beta aggregates (oligomer or fibril) (human A131-42 monomer [3]): significantly inhibited
- expression of Bcl-2 [4]: the expression of Bcl-2 increased
- expression of cleaved caspase-3 [4]: the expression of cleaved caspase-3 decreased
- inhibiting formation of tau aggregates compared with EPPS (Tau protein [5]): better effects
